Publication PMC8252455, “Prediction of a clinically effective dose of THY1773, a novel V 1B receptor antagonist, based on preclinical data” (Biopharmaceutics & Drug Disposition, 2021)

Assays:
[1] = Metabolic stability in dog liver microsomes; type: in vitro ADME; conditions: 1 μmol/L
Experimental: The oxidative metabolism of THY1773 was evaluated in rat and dog liver microsomes. THY1773 (1 μmol/L) was incubated with pooled liver microsomes (0.25 mg protein/ml) in sodium–potassium phosphate buffer (pH 7.4) consisting of 100 mmol/L sodium phosphate, 100 mmol/L potassium chloride, 2.5 mmol/L magnesium chloride (MgCl2), 1.5 mmol/L glucose‐6‐phosphate (G‐6‐P), and 0.18 units/ml G‐6‐P dehydrogenase (G‐6‐PDH). The reactions were initiated by the addition of β‐nicotinamide–adenine dinucleotide phosphate, oxidized form (NADP^+, 0.16 mmol/L), and incubated for 10, 20, 30, 40, 50, and 60 min. […] The intrinsic clearance (CLint) was calculated by the substrate depletion method described by Naritomi et al. (2001).
Since the CLliver was underestimated in rats and dogs from CLint in liver microsomes, the ratio of observed in vivo CLint and predicted CLint was calculated as the empirical scaling factor (ESF) for the extrapolation of CLliver from in vitro data. […] The total plasma clearance (CLtotal) was calculated by Equation (4): (4) CLtotal=QH×fu×(CLint/fu,mic)/QH+(fu/Rb)×(CLint/fu,mic)+CLrenal where QH is hepatic blood flow, fu is the free fraction in plasma, fu,mic is the fraction unbound in HLMs, Rb is blood‐to‐plasma ratio, and CLrenal is renal clearance. The fu,mic value was calculated using the Simcyp population based simulator (Version 16 R1; Simcyp Ltd.). […]

[2] = PK and urinary excretion in dogs; type: in vivo, dog
Experimental: The PK and urinary excretion of THY1773 in rats (1 mg/kg) and dogs (0.5 mg/kg) under fasted conditions were evaluated following intravenous or oral administration of THY1773. THY1773 was dissolved in 10% (vol/vol) hydroxypropyl‐β‐cyclodextrin at pH 4 for intravenous administration, or suspended in 0.5% (wt/vol) methyl cellulose 400 for oral administration. After a single intravenous or oral administration of THY1773, blood samples were collected into tubes containing EDTA‐2K as an anticoagulant. The scheduled time points were predose (dog only), 5 (intravenous only), 15, 30 min, 1, 2, 4, 8, 12, and 24 h postdose. Plasma was separated by centrifugation. Urine samples were collected into bottles set on ice for 24 h after intravenous administration of THY1773. Plasma and urine samples were treated with 4 volumes of acetonitrile/methanol (9:1, vol/vol) containing the IS. After centrifugation (3639 × g, 4°C, 10 min) to remove precipitated proteins, the supernatant was subjected to LC‐MS/MS analysis. The distributions of THY1773 into brain and pituitary gland in rats were investigated after a single oral administration of THY1773 (1 mg/kg). Blood was collected from the tail vein into tubes containing EDTA‐2K at 1 h after a single oral administration of THY1773, and the plasma was separated by centrifugation (12000 × g, 4°C, 3 min). After blood collection, the brain and pituitary gland were excised followed by homogenization with approximately 4 volumes of distilled water. Plasma, brain, and pituitary samples were treated with 4 volumes of acetonitrile/methanol (9:1, vol/vol) containing the IS and centrifuged (3639 × g, 4°C, 10 min). Aliquots of the supernatant were subjected to LC‐MS/MS analysis.
The plasma concentration–time profiles of THY1773 were analyzed by a non‐compartmental analysis with PK analysis software Phoenix WinNonlin® (version 6.1; Certara), and the PK parameters were calculated. The fraction excreted in urine was calculated by dividing the amount of THY1773 excreted in urine by the administered dose.

[3] = Prediction of human CLtotal (FCIM, two-species allometry, IVIVE)
Text: Of the many reported methods for the prediction of human CL, the top two methods reported by Ring et al. (2011) were selected based on prediction accuracy; that is, the unbound fraction corrected intercept method (FCIM) and two‐species‐based allometry (rat and dog) described by Equations (2) and (3), respectively (Tang, Hussain, Leal, Mayersohn, & Fluhler, 2007; Tang & Mayersohn, 2005): (2) CLhuman(mL/min/kg)=33.35×(a/Rfu)^0.77/Humanbodyweight(kg) (3) CL=a×(Humanbodyweight)^0.628 where the allometric coefficient (a) is obtained from the intercept of the simple allometry log–log plot between rats and dogs, and Rfu is the ratio of unbound fraction in plasma between rats and humans. Human body weight was assumed to be 70 kg. The hepatic CL (CLliver) was also predicted by physiologically based in vitro–in vivo extrapolation (IVIVE) method using physiological parameters listed in Table 1 based on the well stirred model (Yang, Jamei, Yeo, Rostami‐Hodjegan, & Tucker, 2007).
Since the CLliver was underestimated in rats and dogs from CLint in liver microsomes, the ratio of observed in vivo CLint and predicted CLint was calculated as the empirical scaling factor (ESF) for the extrapolation of CLliver from in vitro data. Human CLliver was predicted from CLint in HLMs with and without applying the average of ESF derived from rats and dogs. The total plasma clearance (CLtotal) was calculated by Equation (4): (4) CLtotal=QH×fu×(CLint/fu,mic)/QH+(fu/Rb)×(CLint/fu,mic)+CLrenal where QH is hepatic blood flow, fu is the free fraction in plasma, fu,mic is the fraction unbound in HLMs, Rb is blood‐to‐plasma ratio, and CLrenal is renal clearance. The fu,mic value was calculated using the Simcyp population based simulator (Version 16 R1; Simcyp Ltd.). The CLrenal was estimated by multiplying fu by glomerular filtration rate (GFR), assuming glomerular filtration only.
The fold error of the difference between observed and predicted human PK parameters was calculated by dividing the predicted value by the observed value.

[4] = male dogs, iv 0.5 mg/kg, mean (%CV), n=3
[5] = male dogs, po 0.5 mg/kg, mean (%CV), n=3

Q: Which results are given for `CC(C)NC(=O)Cn1c(-c2cccc(Cl)c2)nn(-c2ccc(CCN3CCOCC3)cc2)c1=O` [THY1773]?
A: CLint in liver microsomes [1]: 32.2 μL/min/mg protein; CLrenal compared with fu × GFR ([2]; dogs): comparable to fu × GFR; CLtotal as share of hepatic blood flow ([2]; dogs, single intravenous administration): approximately 30 % of hepatic blood flow; Urinary excretion of unchanged drug ([2]; dogs, within 24 h post intravenous dosing): 2.0%; AUC0‐∞ [2, 4]: 664 (23.7) h·ng/ml; CLtotal [2, 4]: 785 (26.4) ml/h/kg; Vdss [2, 4]: 2020 (37.6) ml/kg; t1/2 [2, 4]: 3.07 (59.3) h; AUC0‐∞ [2, 5]: 307 (37.7) h·ng/ml; Cmax [2, 5]: 105 (12.3) ng/ml; F (oral bioavailability) [2, 5]: 45.0 (16.6) %; t1/2 [2, 5]: 2.40 (81.2) h; tmax [2, 5]: 0.500 (0.0) h; Predicted human CLtotal ([3]; FCIM): 1.07 mL/min/kg; Predicted human CLtotal ([3]; IVIVE method with ESF): 1.06 mL/min/kg; Predicted human CLtotal ([3]; IVIVE method without ESF): 0.25 mL/min/kg; Predicted human CLtotal ([3]; Two species allometry (rat and dog)): 3.73 mL/min/kg
